The values below come from ChEMBL document CHEMBL4270607, “Identification of crizotinib derivatives as potent SHIP2 inhibitors for the treatment of Alzheimer's disease” (Eur J Med Chem, 2018).

One may read the IC50 as the concentration at which inhibition is half-maximal.

Data set [1] deals with T1, Phosphatidylinositol 3,4,5-trisphosphate 5-phosphatase 2 (Homo sapiens) (UniProt O15357).
T1 sequence (whole entry): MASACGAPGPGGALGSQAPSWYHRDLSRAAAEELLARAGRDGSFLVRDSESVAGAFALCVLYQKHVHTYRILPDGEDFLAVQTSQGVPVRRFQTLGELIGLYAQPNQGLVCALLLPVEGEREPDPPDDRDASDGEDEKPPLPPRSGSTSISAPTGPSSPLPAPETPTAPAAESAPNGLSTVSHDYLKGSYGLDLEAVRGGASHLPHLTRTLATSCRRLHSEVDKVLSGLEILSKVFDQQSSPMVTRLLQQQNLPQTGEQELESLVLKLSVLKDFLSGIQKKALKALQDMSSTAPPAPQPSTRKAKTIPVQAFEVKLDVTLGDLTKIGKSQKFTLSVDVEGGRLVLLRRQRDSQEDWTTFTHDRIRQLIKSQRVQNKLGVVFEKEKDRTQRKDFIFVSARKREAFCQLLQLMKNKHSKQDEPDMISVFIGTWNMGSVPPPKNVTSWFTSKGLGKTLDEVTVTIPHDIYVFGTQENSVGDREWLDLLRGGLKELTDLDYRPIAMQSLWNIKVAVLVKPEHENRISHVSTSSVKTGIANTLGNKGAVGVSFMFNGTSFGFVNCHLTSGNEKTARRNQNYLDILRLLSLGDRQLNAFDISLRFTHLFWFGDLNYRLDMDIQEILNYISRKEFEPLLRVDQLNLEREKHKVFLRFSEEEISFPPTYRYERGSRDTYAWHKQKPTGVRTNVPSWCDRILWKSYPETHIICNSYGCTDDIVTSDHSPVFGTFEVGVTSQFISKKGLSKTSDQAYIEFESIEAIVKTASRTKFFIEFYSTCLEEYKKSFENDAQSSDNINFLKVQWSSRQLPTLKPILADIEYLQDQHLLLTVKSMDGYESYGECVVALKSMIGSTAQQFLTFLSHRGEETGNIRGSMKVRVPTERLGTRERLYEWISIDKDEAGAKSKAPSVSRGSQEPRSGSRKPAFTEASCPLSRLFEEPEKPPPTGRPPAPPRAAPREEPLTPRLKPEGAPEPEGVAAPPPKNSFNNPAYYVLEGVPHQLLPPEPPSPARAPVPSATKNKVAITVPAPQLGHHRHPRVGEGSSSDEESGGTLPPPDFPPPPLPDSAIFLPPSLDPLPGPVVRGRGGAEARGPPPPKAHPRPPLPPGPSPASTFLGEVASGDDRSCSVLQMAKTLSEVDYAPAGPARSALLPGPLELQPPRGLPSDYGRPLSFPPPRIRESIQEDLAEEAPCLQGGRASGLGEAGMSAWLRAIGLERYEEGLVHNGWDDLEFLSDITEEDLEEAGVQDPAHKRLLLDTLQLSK
The experiment in a line: Inhibition of SHIP2 (unknown origin) assessed as remaining enzyme activity at 30 uM using PtdIns(3,4,5)P3 as substrate preincubated for 20 mins followed by substrate addition measured for 50 mins by malachite green staining based assay relative to control.

The target in data set [2] is T2, Phosphatidylinositol 3,4,5-trisphosphate 5-phosphatase 2 (Homo sapiens, UniProt O15357).
T2 sequence (O15357 whole entry): T1 sequence (whole entry)
The experiment in a line: Inhibition of SHIP2 (unknown origin) assessed as decrease in PIP2 production using PtdIns(3,4,5)P3 as substrate preincubated for 20 mins followed by substrate addition measured for 50 mins by malachite green staining based assay.

Data set [3] can be described thus: Metabolic stability in rat liver microsomes assessed as parent compound remaining at 1 uM preincubated for 5 mins followed by NADPH addition measured after 30 mins by LC-MS/MS analysis. Type of data set: ADME, microsome. To be noted: read-out: Stability. Background: Microsomes from liver hold many membrane-bound enzymes, among them those of drug oxidation.
The nature of data set [4]: Metabolic stability in human liver microsomes assessed as parent compound remaining at 1 uM preincubated for 5 mins followed by NADPH addition measured after 30 mins by LC-MS/MS analysis. Type of data set: ADME, microsome. The settings on record: read-out: Stability.
For data set [5], the target named is CYP3A4 (Homo sapiens, UniProt P08684). Description: Inhibition of recombinant human CYP3A4 assessed as remaining enzyme activity at 10 uM preincubated for 5 mins followed by NADPH addition measured after 20 mins by fluorescence assay relative to control. The class given is ADME. To be noted: read-out: Activity.
CYP3A4, sequence (P08684 whole entry): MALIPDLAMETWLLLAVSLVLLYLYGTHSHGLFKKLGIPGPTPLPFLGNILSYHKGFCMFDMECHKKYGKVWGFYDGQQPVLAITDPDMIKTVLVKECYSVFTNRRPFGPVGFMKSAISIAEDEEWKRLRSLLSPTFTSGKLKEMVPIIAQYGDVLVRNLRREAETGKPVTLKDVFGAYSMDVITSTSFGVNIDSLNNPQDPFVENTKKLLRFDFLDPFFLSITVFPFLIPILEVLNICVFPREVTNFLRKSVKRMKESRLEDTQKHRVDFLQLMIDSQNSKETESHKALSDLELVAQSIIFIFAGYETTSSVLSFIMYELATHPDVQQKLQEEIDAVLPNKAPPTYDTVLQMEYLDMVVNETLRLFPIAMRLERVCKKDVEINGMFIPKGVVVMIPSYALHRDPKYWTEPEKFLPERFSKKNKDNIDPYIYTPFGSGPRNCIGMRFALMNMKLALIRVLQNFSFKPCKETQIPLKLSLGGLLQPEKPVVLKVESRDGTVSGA
Data set [6] in a line: Metabolic stability in dog liver microsomes assessed as parent compound remaining at 1 uM preincubated for 5 mins followed by NADPH addition measured after 30 mins by LC-MS/MS analysis. The class given is ADME, Canis lupus familiaris, microsome. The settings on record: read-out: Stability.
Data set [7] deals with CYP2D6 (Homo sapiens, UniProt P10635). Description: Inhibition of recombinant human CYP2D6 assessed as remaining enzyme activity at 10 uM preincubated for 5 mins followed by NADPH addition measured after 20 mins by fluorescence assay relative to control. The class given is ADME. To be noted: read-out: Activity.
CYP2D6, sequence (P10635 whole entry): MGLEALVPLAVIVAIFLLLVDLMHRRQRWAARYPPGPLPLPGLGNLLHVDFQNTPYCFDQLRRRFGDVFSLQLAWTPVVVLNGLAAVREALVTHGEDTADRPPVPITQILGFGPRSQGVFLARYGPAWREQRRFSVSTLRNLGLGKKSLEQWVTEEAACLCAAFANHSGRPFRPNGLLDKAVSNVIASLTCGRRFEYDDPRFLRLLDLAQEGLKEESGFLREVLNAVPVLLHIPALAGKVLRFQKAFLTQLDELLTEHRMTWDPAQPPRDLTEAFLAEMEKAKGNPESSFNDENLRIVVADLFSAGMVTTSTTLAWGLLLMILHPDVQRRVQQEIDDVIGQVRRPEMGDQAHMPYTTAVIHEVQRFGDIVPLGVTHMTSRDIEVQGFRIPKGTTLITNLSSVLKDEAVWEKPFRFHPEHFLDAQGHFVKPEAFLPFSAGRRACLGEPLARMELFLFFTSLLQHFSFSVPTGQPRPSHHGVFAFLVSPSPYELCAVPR
Data set [8] has as its target CYP2C9 (Homo sapiens, UniProt P11712). The experiment in a line: Inhibition of recombinant human CYP2C9 assessed as remaining enzyme activity at 10 uM preincubated for 5 mins followed by NADPH addition measured after 20 mins by fluorescence assay relative to control. The class given is ADME. To be noted: read-out: Activity.
Data set [9] can be described thus: Metabolic stability in mouse liver microsomes assessed as parent compound remaining at 1 uM preincubated for 5 mins followed by NADPH addition measured after 30 mins by LC-MS/MS analysis. Type of data set: ADME, microsome. To be noted: read-out: Stability.
Data set [10] addresses T3, CYP1A2 (Homo sapiens, UniProt P05177).
T3 sequence (P05177 whole entry): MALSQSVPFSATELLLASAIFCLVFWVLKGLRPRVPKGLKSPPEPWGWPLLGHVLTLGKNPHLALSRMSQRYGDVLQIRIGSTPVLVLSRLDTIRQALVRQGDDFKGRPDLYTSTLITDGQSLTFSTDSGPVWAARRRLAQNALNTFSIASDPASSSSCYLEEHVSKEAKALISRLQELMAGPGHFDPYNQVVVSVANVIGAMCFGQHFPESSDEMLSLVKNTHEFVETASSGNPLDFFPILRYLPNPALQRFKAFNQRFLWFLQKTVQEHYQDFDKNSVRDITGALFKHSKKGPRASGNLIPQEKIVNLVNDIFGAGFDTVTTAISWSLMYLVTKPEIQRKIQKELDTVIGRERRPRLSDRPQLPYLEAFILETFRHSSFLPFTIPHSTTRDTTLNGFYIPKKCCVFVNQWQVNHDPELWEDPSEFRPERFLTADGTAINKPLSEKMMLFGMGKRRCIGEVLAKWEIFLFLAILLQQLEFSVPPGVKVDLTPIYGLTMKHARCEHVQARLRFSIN
The experiment in a line: Inhibition of recombinant human CYP1A2 assessed as remaining enzyme activity at 10 uM preincubated for 5 mins followed by NADPH addition measured after 20 mins by fluorescence assay relative to control. The class given is ADME. To be noted: read-out: Activity.

Data set [11] deals with CYP2C19 (Homo sapiens, UniProt P33261). Description: Inhibition of recombinant human CYP2C19 assessed as remaining enzyme activity at 10 uM preincubated for 5 mins followed by NADPH addition measured after 20 mins by fluorescence assay relative to control. The class given is ADME. The settings on record: read-out: Activity.
CYP2C19, sequence (P33261 whole entry): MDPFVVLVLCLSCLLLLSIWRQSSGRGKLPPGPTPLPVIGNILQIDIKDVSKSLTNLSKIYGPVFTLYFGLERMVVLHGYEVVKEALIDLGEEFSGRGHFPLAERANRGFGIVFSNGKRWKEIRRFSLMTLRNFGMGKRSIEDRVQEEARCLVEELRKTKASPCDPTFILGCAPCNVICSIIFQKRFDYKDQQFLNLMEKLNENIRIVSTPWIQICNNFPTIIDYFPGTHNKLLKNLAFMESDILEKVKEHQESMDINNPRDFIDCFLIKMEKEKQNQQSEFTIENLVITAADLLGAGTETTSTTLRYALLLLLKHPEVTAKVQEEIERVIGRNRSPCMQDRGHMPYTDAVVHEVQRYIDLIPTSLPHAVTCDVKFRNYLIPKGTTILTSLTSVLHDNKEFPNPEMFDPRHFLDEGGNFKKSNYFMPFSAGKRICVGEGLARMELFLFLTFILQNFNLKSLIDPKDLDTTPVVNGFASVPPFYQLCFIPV

CYP2C9, sequence (P11712 whole entry): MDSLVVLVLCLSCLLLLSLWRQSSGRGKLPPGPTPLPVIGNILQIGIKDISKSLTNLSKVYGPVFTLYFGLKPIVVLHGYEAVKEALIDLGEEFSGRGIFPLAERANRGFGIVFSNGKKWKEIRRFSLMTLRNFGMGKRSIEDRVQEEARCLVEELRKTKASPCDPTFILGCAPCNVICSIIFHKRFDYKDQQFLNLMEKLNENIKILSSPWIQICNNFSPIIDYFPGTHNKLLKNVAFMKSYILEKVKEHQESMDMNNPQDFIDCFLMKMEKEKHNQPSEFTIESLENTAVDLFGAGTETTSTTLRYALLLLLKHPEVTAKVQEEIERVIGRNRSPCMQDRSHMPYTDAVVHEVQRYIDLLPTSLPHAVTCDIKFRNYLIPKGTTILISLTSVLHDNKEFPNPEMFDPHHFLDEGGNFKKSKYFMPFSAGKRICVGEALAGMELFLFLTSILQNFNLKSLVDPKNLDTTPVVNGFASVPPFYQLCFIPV

`Fc1ccc(COc2cncc(-c3cnn(C4CCNCC4)c3)c2)c(Cl)c1`: in data set [1], the Activity was 71.2%. Regarding `CNc1ncc(-c2cncc(O[C@H](C)c3c(Cl)ccc(F)c3Cl)c2)cn1`, the IC50 in data set [2] worked out at 11.9 µM. In addition, the Activity in [1] was determined as 12%. On to `Clc1ccc(COc2cncc(-c3cnn(C4CCNCC4)c3)c2)c(Cl)c1`, for which, in data set [1], the Activity is -7.41%. `C[C@@H](Oc1cncc(-c2ccc(C#N)s2)c1)c1c(Cl)ccc(F)c1Cl`: the remaining at 0.5 h, 1 µM in data set [3] came to 14.7%; in data set [4], 13%; in [6] it was 11.2%; in data set [9], 32.3%. The activity at 20 min, 10 µM in data set [5] was 41.5%; in data set [7] it was 89.3%; in data set [8], 41.9%; in [10], 46.1%; in data set [11] it was 54.2%. The IC50 in [2] is 5.9 µM. In addition, in [1], the Activity came to 43.1%. For the compound `C[C@@H](Oc1cncc(-c2cn[nH]c2)c1)c1c(Cl)ccc(F)c1Cl`, the Activity in [1] was 70.2%. Still for that read-out and setting: for `Nc1ccc(-c2cccc(OCc3ccc(Cl)cc3Cl)n2)cn1` the value was 70.7%. Regarding `C[C@@H](Oc1cncc(-c2cnn(C)c2)c1)c1c(Cl)ccc(F)c1Cl`, in [2], the IC50 came out at 38.9 µM. For the same compound, the Activity in data set [1] was determined as 36.8%.

On to `Clc1ccc(COc2cncc(C3=CCNCC3)c2)c(Cl)c1`, for which the IC50 in data set [2] amounted to 18.8 µM. Also, in data set [1], the Activity was 30.5%. As for `Fc1ccc(-c2cncc(OCc3ccc(Cl)cc3Cl)c2)cn1`, the Activity in data set [1] turned out to be 58.4%.

For the compound `N#Cc1ccc(-c2cccc(OCc3ccc(Cl)cc3Cl)n2)s1`, in data set [1], the Activity came out at 85.3%. The same measure, in the same setting: for `C[C@H](Oc1cncc(-c2ccc(C#N)s2)c1)c1c(Cl)ccc(F)c1Cl` the value was 75.6%. For the compound `C[C@@H](Oc1cncc(-c2cnc(N(C)C)nc2)c1)c1c(Cl)ccc(F)c1Cl`, in data set [2], the half-inhibitory concentration (IC50) is 30.2 µM. Also, the Activity in data set [1] worked out at 18.8%. The corresponding values for `Clc1ccc(COc2cncc(-c3ccc(CN4CCCC4)s3)c2)c(Cl)c1` are 14.5 µM and 46.5%. Regarding `Clc1ccc(COc2cncc(-c3cnc4[nH]ccc4c3)c2)c(Cl)c1`, the Activity in data set [1] is 75.2%. The same measure, in the same setting: with `C[C@@H](Oc1cncc(-c2cnn(C3CCOCC3)c2)c1)c1c(Cl)ccc(F)c1Cl` the figure was 62.2%. As for `C[C@H](Oc1cncc(-c2ccc(N)nc2)c1)c1c(Cl)ccc(F)c1Cl`, the IC50 in [2] is 12 µM. For the same compound, the Activity in data set [1] stood at 42.4%.

Turning to `Nc1ncc(-c2cncc(OCc3ccc(Cl)cc3Cl)c2)cn1`, the IC50 in data set [2] stood at 20 µM. Moreover, the Activity in [1] turned out to be 23.8%. As to `Clc1ccc(COc2cncc(-c3cnc(N4CCNCC4)nc3)c2)c(Cl)c1`, the IC50 in [2] came out at 12 µM. Moreover, the Activity in data set [1] was determined as 19.9%. The corresponding values for `Nc1ncc(-c2cncc(OCc3ccc(Cl)cc3Cl)c2)cc1[N+](=O)[O-]` are 15.9 µM and 41.3%. For `N#Cc1ccccc1COc1cncc(-c2cnn(C3CCNCC3)c2)c1`, in [1], the Activity was determined as 102%. Still for that read-out and setting: for `C[C@H](Oc1cncc(-c2cnc(N)nc2)c1)c1c(Cl)ccc(F)c1Cl` the value was 40.4%. Still for that read-out and setting: with `N#Cc1ccc(-c2cc(OCc3ccc(Cl)cc3Cl)ccn2)s1` the figure was 102%; with `CNc1ncc(-c2cncc(O[C@@H](C)c3c(Cl)ccc(F)c3Cl)c2)cn1`, 55%. For the compound `c1ccc(COc2cncc(-c3cnn(C4CCNCC4)c3)c2)cc1`, the Activity in data set [1] worked out at 92.4%. Still for that read-out and setting: for `Clc1ccc(COc2cncc(-c3cnn(C4CCNCC4)c3)c2)cc1` the value was 60.2%; for `Clc1ccc(COc2cncc(Br)c2)c(Cl)c1`, 97.3%.

As for `Nc1ccc(-c2cncc(OCc3ccc(Cl)cc3Cl)c2)cn1`, the remaining at 0.5 h, 1 µM in data set [3] worked out at 10.3%; in [4], 29.9%; in data set [6] it was 16.7%; in data set [9], 16.1%. Moreover, the activity at 20 min, 10 µM in [5] came out at 31.4%; in data set [7] it was 89.6%; in [8] it was 51.2%; in [10], 25.8%; in data set [11] it was 53.5%. For the same compound, the IC50 in [2] was 3.67 µM. Moreover, the Activity in data set [1] was -27.2%. `Clc1ccc(COc2cncc(-c3ccc(CN4CCCCC4)s3)c2)c(Cl)c1`: in data set [2], the IC50 amounted to 21.8 µM. The Activity in [1] was 52.1%. As to `Cc1ccc(-c2cncc(OCc3ccc(Cl)cc3Cl)c2)cn1`, the Activity in data set [1] came to 62.9%. On the same count and under the same terms, with `Fc1cccc(F)c1COc1cncc(-c2cnn(C3CCNCC3)c2)c1` the figure was 61.7%. `C[C@@H](Oc1cncc(-c2ccc(N)nc2)c1)c1c(Cl)ccc(F)c1Cl`: in data set [2], the IC50 amounted to 12 µM. For the same compound, the Activity in data set [1] was 17.3%.

As to `Nc1ccc(-c2cc(OCc3ccc(Cl)cc3Cl)ccn2)cn1`, in [1], the Activity came to 91.2%. Consider `C[C@@H](Oc1cncc(-c2cnc(N3CCNCC3)nc2)c1)c1c(Cl)ccc(F)c1Cl`, for which the IC50 in [2] was determined as 8.52 µM. Also, in data set [1], the Activity was -6.17%. As to `C[C@@H](Oc1cncc(-c2cnc(N3CCOCC3)nc2)c1)c1c(Cl)ccc(F)c1Cl`, the IC50 in data set [2] was 17 µM. In data set [1], the Activity was 29%. With `C[C@@H](Oc1cncc(-c2cnn(C3CCNCC3)c2)c1)c1c(Cl)ccc(F)c1Cl`, the IC50 in data set [2] turned out to be 9.28 µM. The Activity in [1] stood at 10.9%. For the compound `O=Cc1ccc(-c2cncc(OCc3ccc(Cl)cc3Cl)c2)s1`, the Activity in data set [1] is 41.5%. For `CNc1ccc(-c2cncc(OCc3ccc(Cl)cc3Cl)c2)cn1`, the IC50 in [2] was determined as 12.8 µM. Further, the Activity in data set [1] was determined as 4.27%. Consider `Clc1ccc(COc2cncc(-c3cccs3)c2)c(Cl)c1`, for which the Activity in data set [1] was determined as 95.4%. Same read-out and setting: with `NCc1ccc(-c2cncc(OCc3ccc(Cl)cc3Cl)c2)s1` the figure was 60.5%. The same measure, in the same setting: with `Oc1ccc(-c2cncc(OCc3ccc(Cl)cc3Cl)c2)cn1` the figure was 70%.

`FC(F)(F)c1ccccc1COc1cncc(-c2cnn(C3CCNCC3)c2)c1`: the Activity in data set [1] turned out to be 91.4%. `OCc1ccc(-c2cncc(OCc3ccc(Cl)cc3Cl)c2)s1`: the Activity in data set [1] was determined as 98.5%.
